Measurements: paper PMC6691788, “Design and synthesis of phthalazine-based compounds as potent anticancer agents with potential antiangiogenic activity via VEGFR-2 inhibition” (Journal of Enzyme Inhibition and Medicinal Chemistry, 2019)

Experiments:
Experiment in all cases: NCI 60 cell panel SRB screen
Assay type in all cases: cell-based
[1] = test system: HL-60(TB); details: Homo sapiens
[2] = test system: MOLT-4; details: Homo sapiens
[3] = test system: SR; details: Homo sapiens
[4] = test system: NCI-H322M; details: Homo sapiens
[5] = test system: COLO 205; details: Homo sapiens
[6] = test system: HCT-116; details: Homo sapiens
[7] = test system: HCT-15; details: Homo sapiens
[8] = test system: HT29; details: Homo sapiens, HT-29
[9] = test system: KM12; details: Homo sapiens
[10] = test system: SW-620; details: Homo sapiens
[11] = test system: SNB-75; details: Homo sapiens
[12] = test system: U251; details: Homo sapiens, U-251
[13] = test system: MALME-3M; details: Homo sapiens
[14] = 5 log dose, 48 h, read-out: LC50 (the source's name)
[15] = single dose 10 μM, read-out: percent cell growth promotion

In the case of `O=C(Nc1ccc(Cl)cc1)Nc1ccc(Nc2nncc3ccccc23)cc1` [Compound 6b, 1–(4-Chlorophenyl)-3–(4-(phthalazin-1-ylamino)phenyl)urea], the GI50 ([1]; 5 log dose) is reported as 2.42 µM, the IC (TGI) ([1]; 5 log dose) is reported as 7 µM and the CC50 [1, 14] is reported as > 100 µM. It also gave an activity at 10 µM [1, 15] of 18.1%, a GI50 ([2]; MOLT-4, 5 log dose) of 2.09 µM and an IC (TGI) ([2]; MOLT-4, 5 log dose) of 6.36 µM. For the same molecule, the CC50 ([2]; MOLT-4, 5 log dose, 48 h, read-out: LC50 (the source's name)) was > 100 µM, the activity at 10 µM ([2]; MOLT-4, single dose 10 μM, read-out: percent cell growth promotion) was -1.61% and the GI50 ([3]; 5 log dose) was 3.89 µM. For the same molecule, the IC (TGI) ([3]; 5 log dose) was 23.3 µM, the CC50 [3, 14] was > 100 µM and the activity at 10 µM [3, 15] was 17.5%. The GI50 ([4]; 5 log dose) was 5 µM, the IC (TGI) ([4]; 5 log dose) was 15 µM and the CC50 [4, 14] was > 100 µM. It also gave an activity at 10 µM [4, 15] of 64.3%, a GI50 ([5]; COLO 205, 5 log dose) of 2.77 µM and an IC (TGI) ([5]; COLO 205, 5 log dose) of 9.58 µM. The CC50 ([5]; COLO 205, 5 log dose, 48 h, read-out: LC50 (the source's name)) was 34.6 µM, the activity at 10 µM ([5]; COLO 205, single dose 10 μM, read-out: percent cell growth promotion) was 18.6% and the GI50 ([6]; HCT-116, 5 log dose) was 2.46 µM. It also gave an IC (TGI) ([6]; HCT-116, 5 log dose) of 12 µM, an LC50 (lethal concentration 50%) ([6]; HCT-116, 5 log dose, 48 h) of 37.4 µM and an activity at 10 µM ([6]; HCT-116, single dose 10 μM, read-out: percent cell growth promotion) of 15.2%. The GI50 ([7]; HCT-15, 5 log dose) was 1.59 µM, the IC (TGI) ([7]; HCT-15, 5 log dose) was 11.8 µM and the CC50 ([7]; HCT-15, 5 log dose, 48 h, read-out: LC50 (the source's name)) was 71.5 µM. The activity at 10 µM ([7]; HCT-15, single dose 10 μM, read-out: percent cell growth promotion) was 18.3%, the GI50 ([8]; HT29, 5 log dose) was 2.65 µM and the IC (TGI) ([8]; HT29, 5 log dose) was 14.1 µM. It also gave a CC50 ([8]; HT29, 5 log dose, 48 h, read-out: LC50 (the source's name)) of 60 µM, an activity at 10 µM ([8]; HT29, single dose 10 μM, read-out: percent cell growth promotion) of 32.4% and a GI50 ([9]; KM12, 5 log dose) of 1.47 µM. It also gave an IC (TGI) ([9]; KM12, 5 log dose) of 11.4 µM, a CC50 ([9]; KM12, 5 log dose, 48 h, read-out: LC50 (the source's name)) of 45 µM and an activity at 10 µM ([9]; KM12, single dose 10 μM, read-out: percent cell growth promotion) of 18.9%. For the same molecule, the GI50 ([10]; SW-620, 5 log dose) was 3.16 µM, the IC (TGI) ([10]; SW-620, 5 log dose) was 18.6 µM and the CC50 ([10]; SW-620, 5 log dose, 48 h, read-out: LC50 (the source's name)) was 81.8 µM. It also gave an activity at 10 µM ([10]; SW-620, single dose 10 μM, read-out: percent cell growth promotion) of 27%, a GI50 ([11]; SNB-75, 5 log dose) of 1.88 µM and an IC (TGI) ([11]; SNB-75, 5 log dose) of 8.67 µM. For the same molecule, the LC50 (concentration killing 50% of cells) ([11]; SNB-75, 5 log dose, 48 h) was 31.8 µM, the activity at 10 µM ([11]; SNB-75, single dose 10 μM, read-out: percent cell growth promotion) was 46.2% and the GI50 ([12]; U251, 5 log dose) was 2.86 µM. For the same molecule, the IC (TGI) ([12]; U251, 5 log dose) was 10.3 µM, the CC50 ([12]; U251, 5 log dose, 48 h, read-out: LC50 (the source's name)) was 37.2 µM and the activity at 10 µM ([12]; U251, single dose 10 μM, read-out: percent cell growth promotion) was 18.3%. The GI50 ([13]; Malme-3M) was 3.94 µM, the IC (TGI) ([13]; Malme-3M, read-out: TGI) was 16.5 µM and the activity at 10 µM ([13]; Malme-3M, read-out: percent cell growth promotion) was 38.5%. For the same molecule, the CC50 ([13]; MALME-3M, 5 log dose, 48 h, read-out: LC50 (the source's name)) was 50 µM.
